Conditions: Hot wire method

C=C(F)C(F)(F)F [2,3,3,3-tetrafluoro-1-propene]
Conditions | thermal conductivity [W/m/K]
272.85 K, 247 kPa, Gas | 0.01156
272.89 K, 200 kPa, Gas | 0.01156
272.97 K, 145 kPa, Gas | 0.0116
273.04 K, 106 kPa, Gas | 0.01162
273.14 K, 261 kPa, Gas | 0.01159
273.17 K, 273 kPa, Gas | 0.01162
273.19 K, 247 kPa, Gas | 0.01159
273.26 K, 200 kPa, Gas | 0.0116
273.35 K, 144 kPa, Gas | 0.01162
273.44 K, 105 kPa, Gas | 0.01163
273.46 K, 258 kPa, Gas | 0.01159
273.55 K, 274 kPa, Gas | 0.01163
273.58 K, 248 kPa, Gas | 0.01163
273.64 K, 200 kPa, Gas | 0.0116
273.76 K, 142 kPa, Gas | 0.01165
273.82 K, 255 kPa, Gas | 0.01165
273.87 K, 104 kPa, Gas | 0.01165
274.2 K, 253 kPa, Gas | 0.01169
281.36 K, 838 kPa, Liquid | 0.06988
281.38 K, 860 kPa, Liquid | 0.06977
281.41 K, 5779 kPa, Liquid | 0.07285
281.44 K, 10941 kPa, Liquid | 0.07602
281.46 K, 841 kPa, Liquid | 0.06981
281.48 K, 862 kPa, Liquid | 0.06968
281.51 K, 5779 kPa, Liquid | 0.07276
281.54 K, 10939 kPa, Liquid | 0.07609
281.66 K, 86 kPa, Gas | 0.01256
281.66 K, 204 kPa, Gas | 0.01278
281.79 K, 859 kPa, Liquid | 0.06833
281.83 K, 10935 kPa, Liquid | 0.07514
281.88 K, 202 kPa, Gas | 0.01259
281.89 K, 87 kPa, Gas | 0.01239
281.89 K, 843 kPa, Liquid | 0.06853
281.93 K, 861 kPa, Liquid | 0.06844
281.93 K, 5767 kPa, Liquid | 0.07189
281.94 K, 10934 kPa, Liquid | 0.07471
281.98 K, 15950 kPa, Liquid | 0.07767
282.01 K, 15964 kPa, Liquid | 0.07708
282.11 K, 200 kPa, Gas | 0.0125
282.13 K, 88 kPa, Gas | 0.01231
282.23 K, 841 kPa, Liquid | 0.06878
282.25 K, 20590 kPa, Liquid | 0.0797
282.26 K, 866 kPa, Liquid | 0.06872
282.26 K, 5764 kPa, Liquid | 0.07204
282.26 K, 10935 kPa, Liquid | 0.07477
282.27 K, 15954 kPa, Liquid | 0.07706
282.31 K, 15965 kPa, Liquid | 0.0773
282.35 K, 198 kPa, Gas | 0.01243
282.38 K, 90 kPa, Gas | 0.01224
282.4 K, 841 kPa, Liquid | 0.06858
282.4 K, 5763 kPa, Liquid | 0.07193
282.4 K, 10935 kPa, Liquid | 0.07479
282.41 K, 864 kPa, Liquid | 0.0687
282.41 K, 15954 kPa, Liquid | 0.07738
282.44 K, 15967 kPa, Liquid | 0.07756
282.56 K, 395 kPa, Gas | 0.01244
282.61 K, 196 kPa, Gas | 0.01241
282.61 K, 308 kPa, Gas | 0.01242
282.64 K, 91 kPa, Gas | 0.01218
282.66 K, 20587 kPa, Liquid | 0.07986
282.71 K, 204 kPa, Gas | 0.0124
282.74 K, 5763 kPa, Liquid | 0.07185
282.74 K, 10939 kPa, Liquid | 0.07487
282.74 K, 15951 kPa, Liquid | 0.07763
282.75 K, 834 kPa, Liquid | 0.06855
282.77 K, 860 kPa, Liquid | 0.06866
282.77 K, 15964 kPa, Liquid | 0.07774
282.81 K, 20585 kPa, Liquid | 0.07986
282.87 K, 396 kPa, Gas | 0.01251
282.89 K, 10938 kPa, Liquid | 0.07473
282.9 K, 15949 kPa, Liquid | 0.07751
282.92 K, 87 kPa, Gas | 0.01242
282.92 K, 5765 kPa, Liquid | 0.07169
282.93 K, 832 kPa, Liquid | 0.06832
282.93 K, 15964 kPa, Liquid | 0.07755
282.94 K, 309 kPa, Gas | 0.01248
282.96 K, 859 kPa, Liquid | 0.06843
283.07 K, 203 kPa, Gas | 0.01237
283.22 K, 396 kPa, Gas | 0.01252
283.24 K, 15950 kPa, Liquid | 0.07752
283.25 K, 10936 kPa, Liquid | 0.07481
283.26 K, 15963 kPa, Liquid | 0.07747
283.26 K, 20587 kPa, Liquid | 0.07981
283.28 K, 5763 kPa, Liquid | 0.07184
283.3 K, 309 kPa, Gas | 0.01244
283.3 K, 832 kPa, Liquid | 0.06845
283.33 K, 86 kPa, Gas | 0.01249
283.33 K, 857 kPa, Liquid | 0.0685
283.43 K, 15951 kPa, Liquid | 0.07738
283.45 K, 10934 kPa, Liquid | 0.07455
283.45 K, 20590 kPa, Liquid | 0.07959
283.46 K, 201 kPa, Gas | 0.01238
283.46 K, 15962 kPa, Liquid | 0.07733
283.49 K, 5765 kPa, Liquid | 0.07154
283.53 K, 830 kPa, Liquid | 0.06815
283.56 K, 855 kPa, Liquid | 0.06813
283.59 K, 396 kPa, Gas | 0.01244
283.69 K, 309 kPa, Gas | 0.01251
283.75 K, 88 kPa, Gas | 0.0125
283.88 K, 199 kPa, Gas | 0.01243
283.93 K, 20590 kPa, Liquid | 0.07977
283.98 K, 395 kPa, Gas | 0.01256
284.1 K, 309 kPa, Gas | 0.01245
284.15 K, 20592 kPa, Liquid | 0.07943
284.2 K, 89 kPa, Gas | 0.01254
284.31 K, 197 kPa, Gas | 0.01245
284.67 K, 91 kPa, Gas | 0.01256
291.15 K, 109 kPa, Gas | 0.01341
291.17 K, 246 kPa, Gas | 0.01364
291.37 K, 109 kPa, Gas | 0.01324
291.37 K, 244 kPa, Gas | 0.01349
291.59 K, 242 kPa, Gas | 0.01339
291.6 K, 109 kPa, Gas | 0.01311
291.83 K, 240 kPa, Gas | 0.01331
291.85 K, 109 kPa, Gas | 0.01303
292.07 K, 238 kPa, Gas | 0.01328
292.07 K, 432 kPa, Gas | 0.01333
292.1 K, 109 kPa, Gas | 0.01299
292.1 K, 342 kPa, Gas | 0.01323
292.36 K, 109 kPa, Gas | 0.0132
292.39 K, 429 kPa, Gas | 0.01328
292.43 K, 342 kPa, Gas | 0.01327
292.51 K, 245 kPa, Gas | 0.01312
292.67 K, 538 kPa, Gas | 0.01326
292.73 K, 428 kPa, Gas | 0.01333
292.74 K, 109 kPa, Gas | 0.01324
292.78 K, 343 kPa, Gas | 0.01325
292.88 K, 243 kPa, Gas | 0.01315
293.03 K, 536 kPa, Gas | 0.01339
293.08 K, 428 kPa, Gas | 0.01323
293.14 K, 109 kPa, Gas | 0.01331
293.15 K, 343 kPa, Gas | 0.01331
293.28 K, 241 kPa, Gas | 0.01321
293.38 K, 532 kPa, Gas | 0.01333
293.46 K, 428 kPa, Gas | 0.01337
293.55 K, 343 kPa, Gas | 0.01331
293.57 K, 109 kPa, Gas | 0.01327
293.7 K, 239 kPa, Gas | 0.01323
294.03 K, 109 kPa, Gas | 0.01333
301.39 K, 199 kPa, Gas | 0.01436
301.41 K, 95 kPa, Gas | 0.01419
301.62 K, 199 kPa, Gas | 0.0142
301.64 K, 95 kPa, Gas | 0.01403
301.86 K, 199 kPa, Gas | 0.0141
301.88 K, 95 kPa, Gas | 0.01395
301.95 K, 868 kPa, Liquid | 0.06212
301.98 K, 5731 kPa, Liquid | 0.06593
302.03 K, 10752 kPa, Liquid | 0.06904
302.06 K, 867 kPa, Liquid | 0.06223
302.08 K, 16026 kPa, Liquid | 0.07261
302.09 K, 5728 kPa, Liquid | 0.0658
302.11 K, 199 kPa, Gas | 0.01401
302.13 K, 10752 kPa, Liquid | 0.06936
302.14 K, 95 kPa, Gas | 0.01385
302.16 K, 648 kPa, Gas | 0.0142
302.18 K, 16021 kPa, Liquid | 0.0724
302.26 K, 510 kPa, Gas | 0.01411
302.37 K, 199 kPa, Gas | 0.01396
302.38 K, 350 kPa, Gas | 0.01405
302.42 K, 95 kPa, Gas | 0.01379
302.43 K, 868 kPa, Liquid | 0.06253
302.45 K, 5727 kPa, Liquid | 0.06616
302.47 K, 10752 kPa, Liquid | 0.06961
302.48 K, 635 kPa, Gas | 0.01423
302.5 K, 16022 kPa, Liquid | 0.07296
302.54 K, 20560 kPa, Liquid | 0.07444
302.56 K, 199 kPa, Gas | 0.01413
302.58 K, 865 kPa, Liquid | 0.06226
302.58 K, 5727 kPa, Liquid | 0.06624
302.59 K, 510 kPa, Gas | 0.01416
302.6 K, 10751 kPa, Liquid | 0.06953
302.62 K, 16020 kPa, Liquid | 0.0724
302.66 K, 20555 kPa, Liquid | 0.07461
302.74 K, 350 kPa, Gas | 0.01409
302.78 K, 95 kPa, Gas | 0.01418
302.82 K, 634 kPa, Gas | 0.01428
302.93 K, 199 kPa, Gas | 0.01415
302.94 K, 510 kPa, Gas | 0.01416
302.96 K, 5727 kPa, Liquid | 0.06618
302.96 K, 10747 kPa, Liquid | 0.06954
302.97 K, 16018 kPa, Liquid | 0.07247
302.98 K, 865 kPa, Liquid | 0.0622
303.01 K, 20553 kPa, Liquid | 0.07485
303.11 K, 350 kPa, Gas | 0.01412
303.13 K, 5725 kPa, Liquid | 0.06595
303.13 K, 10746 kPa, Liquid | 0.06929
303.13 K, 16018 kPa, Liquid | 0.0723
303.15 K, 20550 kPa, Liquid | 0.07489
303.16 K, 864 kPa, Liquid | 0.0621
303.17 K, 638 kPa, Gas | 0.01429
303.31 K, 509 kPa, Gas | 0.01414
303.33 K, 199 kPa, Gas | 0.01417
303.5 K, 16015 kPa, Liquid | 0.07239
303.51 K, 350 kPa, Gas | 0.01407
303.51 K, 10746 kPa, Liquid | 0.06924
303.51 K, 20552 kPa, Liquid | 0.07485

Liquid
Conditions | thermal conductivity [W/m/K]
273.15 K | 0.07159
283.15 K | 0.06833
293.15 K | 0.06515
303.15 K | 0.06204

— the NIST ThermoML archive (doi:10.1021/je200811n)
